This note sets out measurements from patent publication US12145947B2, “Pyrimidine based modulators and uses thereof” (Quanta Therapeutics, Inc., priority 2022, dated 2024).

The target in assay [1] is T1, GST-tagged KRAS-G12D (2-169) (Homo sapiens, UniProt P01116, G12D).
T1 construct: GST-tagged KRAS-G12D (2-169, Reaction Biology, MSC-11-539); purchased Reaction Biology MSC-11-539 (KRAS G12D); MSC-11-502 (SOS1cat)
The assay can be described thus: Nucleotide exchange assay (NEA), SOS-mediated, HTRF, KRAS G12D. The format is biochemical. The settings on record: Table 4; IC50 extracted at 30 min. A digest of the protocol:
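GST-KRAS-G12D (2-169, 5 nM final) with Tb-anti-GST donor was preincubated with compound 1 h at RT (pH 7.3 HEPES buffer, MgCl2, DTT), then SOScat (564-1049, 20 nM) and GTP-DY-647P1 (150 nM) were added. HTRF was read at RT; % inhibition vs DMSO/no-SOS blank, 4-parameter IC50 taken at 30 min.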
On the technique in general: In TR-FRET formats the signal depends on donor and acceptor labels being close together.

In assay [2] the test system is GP2D cells (KRAS G12D), phospho-ERK. Nature of the assay: pERK In Cell Western (ICW) assay, GP2D cells. Particulars: Table 4, 3 hours. The format is cell-based. The procedure: pERK ICW is a high throughput screening assay to evaluate the cellular potency of mutant KRAS small molecule inhibitors. KRAS mutant cell lines AGS and GP2D (KRAS^G12D) were purchased from ATCC and maintained respectively in RPMI and DMEM medium supplemented with 10% fetal bovine serum and Penicillin/Streptomycin.
Cells grown in exponential phase were trypsinized, resuspended in fresh media, and viable cells were counted using a cell counter with Trypan Blue (BioRad TC20). Cells were seeded into 384-well plate (Greiner 781091) at density of 5,000 cells/well for AGS and 10,000 cells/well for GP2D and allowed to grow overnight in a 37° C. CO2 incubator. The next day, compounds were dispensed into wells with a ½ log, 10-point serial dilution and top concentration of […] using Tecan D300e dispenser and incubated for 3 hours in a 37° C. CO2 incubator. Cells were then fixed with paraformaldehyde (Electron Microscopy Sciences, 15710, 4% final concentration) for 30 min, permeabilized with wash buffer (1×PBS+0.1% Triton X-100) for 30 min and blocked with Odyssey blocking buffer (Li—COR 927-70001) for 1 hour, all at room temperature (RT). Phospho-ERK antibody (CST 4370L) was diluted 1:500 in Odyssey blocking+0.2% Tween 20 and incubated with cells overnight at 4° C. The next day, plates were washed 5× with wash buffer, incubated with IRDye 800 CW, Goat anti-Rabbit secondary antibody (Li—COR 926-32211, 1:500) and DRAQ5 (CST 4084L, 1:5,000) diluted in Odyssey blocking+0.2% Tween 20 for 1 hour, washed 5×, and imaged on an Odyssey CLx imaging system.
For data analysis, signal intensities from 800 (phosphor-ERK) and 700 (DRAQ5) channels were extracted, and phospho-ERK signals were normalized to DRAQ5 signals for each well and percent of DMSO control values were computed. Data were then imported into Graphpad Prism to compute half-maximal inhibitory concentrations (IC50) using a 4-parameter variable slope model. Z-factor for each plate was computed from signals derived from wells treated with either DMSO or […] of Trametinib. AGS pERK ICW (Method B) IC50 (uM) values of selected compounds are depicted in Table 2 with compounds having a value 0.001 uM to 0.01 uM as ++++; >0.01 uM to 0.1 uM as +++; >0.1 uM to 1 uM as ++; 1 uM to 10 uM as + and >10 uM as NA.

T1 sequence (P01116 2-169 isoform P01116-2 G12D): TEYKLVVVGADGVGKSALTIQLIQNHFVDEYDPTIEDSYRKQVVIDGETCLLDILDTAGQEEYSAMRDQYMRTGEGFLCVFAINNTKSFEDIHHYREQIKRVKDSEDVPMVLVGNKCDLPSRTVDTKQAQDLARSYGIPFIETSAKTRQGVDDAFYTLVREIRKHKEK

The term IC50 denotes the concentration that gives 50% inhibition. A higher IC50 goes with weaker potency. With `Cn1c(-c2nn3c(c2Cl)CN(c2nc(OC[C@@]45CCCN4C[C@H](F)C5)nc(N4CC5(CCc6sc(N)c(C#N)c65)C4)c2C#N)CCC3)nc2c(F)cccc21` [Compound 32, 2-amino-1′-[6-[3-chloro-2-(4-fluoro-1-methyl-benzimidazol-2-yl)-4,6,7,8-tetrahydropyrazolo[1,5-a][1,4]diazepin-5-yl]-5-cyano-2-[[(2R,8S)-2-fluoro-1,2,3,5,6,7-hexahydropyrrolizin-8-yl]methoxy]pyrimidin-4-yl]spiro[5,6-dihydrocyclopenta[b]thiophene-4,3′-azetidine]-3-carbonitrile], the results for the 50% inhibitory concentration (IC50) in assay [1] and in assay [2] were less than 10 nM and 10 to 100 nM, respectively.
In the same order, the values of `N#Cc1c(N2CCCC(C#N)CC2)nc(OC[C@@]23CCCN2C[C@H](F)C3)nc1N1CC2(CCc3sc(N)c(C#N)c32)C1` (stereo partly drawn) [Compound 33, 2-amino-1′-[5-cyano-6-(4-cyanoazepan-1-yl)-2-[[(2R,8S)-2-fluoro-1,2,3,5,6,7-hexahydropyrrolizin-8-yl]methoxy]pyrimidin-4-yl]spiro[5,6-dihydrocyclopenta[b]thiophene-4,3′-azetidine]-3-carbonitrile] are 10 to 100 nM and 100 to 1000 nM.
In the same order, the values of `N#Cc1c(N2C[C@H]3CC[C@@H](C2)N3)nc(OCC2(CN3CCC(F)(F)CC3)CC2)nc1N1CC2(CCc3sc(N)c(C#N)c32)C1` [Compound 34, 2-amino-1′-[5-cyano-6-(3,8-diazabicyclo[3.2.1]octan-3-yl)-2-[[1-[(4,4-difluoro-1-piperidyl)methyl]cyclopropyl]methoxy]pyrimidin-4-yl]spiro[5,6-dihydrocyclopenta[b]thiophene-4,3′-azetidine]-3-carbonitrile] are less than 10 nM and 1 to 10 nM.
With `N#Cc1c(N2CCCC(O)CC2)nc(OC[C@@]23CCCN2C[C@H](F)C3)nc1N1CC2(CCc3sc(N)c(C#N)c32)C1` (stereo partly drawn) [Compound 40, 2-amino-1′-[5-cyano-6-(4-hydroxyazepan-1-yl)-2-[[(2R,8S)-2-fluoro-1,2,3,5,6,7-hexahydropyrrolizin-8-yl]methoxy]pyrimidin-4-yl]spiro[5,6-dihydrocyclopenta[b]thiophene-4,3′-azetidine]-3-carbonitrile], the IC50 in assay [1] lay in the range of 10 to 100 nM; in assay [2], 100 to 1000 nM.
In the same order, the values of `N#Cc1c(N2C[C@H]3CC[C@@H](C2)N3)nc(OCC2(CN3CCOCC3)CC2)nc1N1CC2(CCCc3sc(N)c(C#N)c32)C1` [Compound 41, 2-amino-1′-[5-cyano-2-[[1-(morpholinomethyl)cyclopropyl]methoxy]-6-[(1R,5S)-3,8-diazabicyclo[3.2.1]octan-3-yl]pyrimidin-4-yl]spiro[6,7-dihydro-5H-benzothiophene-4,3′-azetidine]-3-carbonitrile] are less than 10 nM and 1 to 10 nM.
In the same order, the values of `N#Cc1c(N2C[C@H]3COC[C@@H](C2)N3)nc(OCC2(CN3CCOCC3)CC2)nc1N1CC2(CCc3sc(N)c(C#N)c32)C1` [Compound 42, 2-amino-1′-[5-cyano-2-[[1-(morpholinomethyl)cyclopropyl]methoxy]-6-(3-oxa-7,9-diazabicyclo[3.3.1]nonan-7-yl)pyrimidin-4-yl]spiro[5,6-dihydrocyclopenta[b]thiophene-4,3′-azetidine]-3-carbonitrile] are less than 10 nM and 100 to 1000 nM.
In the same order, the values of `N#Cc1c(N2CC3COCC(C2)N3)nc(OC[C@]23CCCN2C[C@@H](F)C3)nc1N1CC2(CCc3sc(N)c(C#N)c32)C1` [Compound 43, 2-amino-1′-[5-cyano-2-[[(2S,8R)-2-fluoro-1,2,3,5,6,7-hexahydropyrrolizin-8-yl]methoxy]-6-(3-oxa-7,9-diazabicyclo[3.3.1]nonan-7-yl)pyrimidin-4-yl]spiro[5,6-dihydrocyclopenta[b]thiophene-4,3′-azetidine]-3-carbonitrile] are 10 to 100 nM and 100 to 1000 nM.
Regarding `CC1CC2(CN(c3nc(OCC4(CN5CCOCC5)CC4)nc(N4C[C@H]5CC[C@@H](C4)N5)c3C#N)C2)c2c1sc(N)c2C#N` (stereo partly drawn) [Compound 45, 2-amino-1-[5-cyano-2-[[1-(morpholinomethyl)cyclopropyl]methoxy]-6-[(1R,5S)-3,8-diazabicyclo[3.2.1]octan-3-yl]pyrimidin-4-yl]-6-methyl-spiro[5,6-dihydrocyclopenta[b]thiophene-4,3′-azetidine]-3-carbonitrile], the half-inhibitory concentration (IC50) was less than 10 nM in assay [1] and 1 to 10 nM in assay [2].
In the case of `Cc1nc(-c2nn3c(c2Cl)CN(c2nc(OC[C@@]45CCCN4C[C@H](F)C5)nc(N4CC5(CCc6sc(N)c(C#N)c65)C4)c2C#N)CCC3)no1` [Compound 46, 2-amino-1′-[6-[3-chloro-2-(5-methyl-1,2,4-oxadiazol-3-yl)-4,6,7,8-tetrahydropyrazolo[1,5-a][1,4]diazepin-5-yl]-5-cyano-2-[[(2R,8S)-2-fluoro-1,2,3,5,6,7-hexahydropyrrolizin-8-yl]methoxy]pyrimidin-4-yl]spiro[5,6-dihydrocyclopenta[b]thiophene-4,3′-azetidine]-3-carbonitrile], the IC50 in assay [1] is less than 10 nM; in assay [2], 10 to 100 nM.
In the same order, the values of `CN(C)C1(COc2nc(N3C[C@H]4CC[C@@H](C3)N4)c(C#N)c(N3CC4(CCc5sc(N)c(C#N)c54)C3)n2)CC1` [Compound 47, 2-amino-1′-[5-cyano-6-[(1R,5S)-3,8-diazabicyclo[3.2.1]octan-3-yl]-2-[[1-(dimethylamino)cyclopropyl]methoxy]pyrimidin-4-yl]spiro[5,6-dihydrocyclopenta[b]thiophene-4,3′-azetidine]-3-carbonitrile] are less than 10 nM and 10 to 100 nM.
`CN(CCOc1nc(N2C[C@H]3CC[C@@H](C2)N3)c(C#N)c(N2CC3(CCc4sc(N)c(C#N)c43)C2)n1)C1CCC1` [Compound 48, 2-amino-1′-[5-cyano-2-[2-[cyclobutyl(methyl)amino]ethoxy]-6-[(1R,5S)-3,8-diazabicyclo[3.2.1]octan-3-yl]pyrimidin-4-yl]spiro[5,6-dihydrocyclopenta[b]thiophene-4,3′-azetidine]-3-carbonitrile]: the values for the half-inhibitory concentration (IC50) in assay [1] and in assay [2] were 10 to 100 nM and 100 to 1000 nM, respectively.
On the same counts, the results for `N#Cc1c(N2CCCC(=O)CC2)nc(OC[C@@]23CCCN2C[C@H](F)C3)nc1N1CC2(CCc3sc(N)c(C#N)c32)C1` [Compound 49, 2-amino-1′-[5-cyano-2-[[(2R,8S)-2-fluoro-1,2,3,5,6,7-hexahydropyrrolizin-8-yl]methoxy]-6-(4-oxoazepan-1-yl)pyrimidin-4-yl]spiro[5,6-dihydrocyclopenta[b]thiophene-4,3′-azetidine]-3-carbonitrile] are 10 to 100 nM and 100 to 1000 nM.
On to `CN(C)CC1(COc2nc(N3C[C@H]4CC[C@@H](C3)N4)c(C#N)c(N3CC4(CCc5sc(N)c(C#N)c54)C3)n2)COC1` [Compound 52, 2-amino-1′-[5-cyano-6-[(1R,5S)-3,8-diazabicyclo[3.2.1]octan-3-yl]-2-[[3-[(dimethylamino)methyl]oxetan-3-yl]methoxy]pyrimidin-4-yl]spiro[5,6-dihydrocyclopenta[b]thiophene-4,3′-azetidine]-3-carbonitrile], for which the IC50 is less than 10 nM in assay [1] and 1 to 10 nM in assay [2].
Consider `N#Cc1c(N2CCCn3nc(C(=O)C4CC4)c(Cl)c3C2)nc(OC[C@@]23CCCN2C[C@H](F)C3)nc1N1CC2(CCc3sc(N)c(C#N)c32)C1` [Compound 62, 2-amino-1′-[6-[3-chloro-2-(cyclopropanecarbonyl)-4,6,7,8-tetrahydropyrazolo[1,5-a][1,4]diazepin-5-yl]-5-cyano-2-[[(2R,8S)-2-fluoro-1,2,3,5,6,7-hexahydropyrrolizin-8-yl]methoxy]pyrimidin-4-yl]spiro[5,6-dihydrocyclopenta[b]thiophene-4,3′-azetidine]-3-carbonitrile], for which the IC50 was less than 10 nM in assay [1] and 10 to 100 nM in assay [2].
